# In US12636291B2, “Compositions and methods relating to use of agonists of ALPHA5-containing GABAA receptors” (Centre for Addiction and Mental Health, priority 2019, dated 2026):
# Legend:
# old mice = test: Spontaneous alternation in the Y-Maze (working memory), normal aging; format: in vivo, mouse; details: GL-II-73 in drinking water 8 weeks (30 mg/kg) vs old mice vehicle (52.6%; young 79.6%), p=0.01
# Excerpt: The percentage of alternation during the Y maze test can be considered as an index of working memory performance (50% of alternation corresponding to a random alternation rate). […] ANOVA analysis indicates a significant difference between all groups (F(2;25)=11.34; p=0.0003).
# Animals: For the experiments described above, young (n=11, age 2 months) and old male mice (N=23) were purchased from Charles River. Old mice were obtained at the age of 9-10 months and were kept in the animal facility until they reached the age of 22 months. Young mice (2 months old) were purchased when old mice had already reached the age of 22 months. All animals were single housed. Experiments were performed on mice aged 2 months (“young”) or 22 months (“old”) at the beginning of the experimental protocol. The second set of experiments with the Washout group included 8 young mice and 22 old mice. Old mice were split into 3 groups of 7-8 between “Old”, “Old-treated” and “Old-Washout”. Finally, the pilot with the 5×FAD mice was performed with 15 heterozygote 5×FAD mice, bred in the animal facility of the Centre for Addiction and Mental Health, Toronto (ON, Canada). […]
# (§1) Spontaneous alternation in the Y-Maze: Mice were tested in a Y maze test as an assessment of working memory. […] The alternation rate was calculated and was expressed as a percentage: […]
# [1] = system: cultured pyramidal neurons; test: Morphology of cultured GFP-expressing pyramidal neurons after acute treatment; format: cell-based, mouse; details: 1 μM, 24 hrs, vs vehicle (0.01% DMSO); FIG. 11A-B; initial data
# Procedure: Transgenic mice were generated to express a fluorescent protein (GFP) only in pyramidal neurons. Embryos were collected at E17, and brain homogenates were plated and cultured under suitable conditions for neuronal growth. Following 2 weeks of incubation and growth, the compound GL-II-73 (1 μM) or vehicle was applied and left for 24 hrs. Isolated cells were then used to image the entire neuron and visualize dendrites and spines on a single neuron.
# heterozygous 5×FAD mice = test: Spontaneous alternation in the Y-Maze, 5×FAD Alzheimer's disease model pilot; format: in vivo, mouse; details: 6 months of age, acute i.p. 10 mg/kg vs vehicle, FIG. 23
# Procedure: A pilot study was performed in the 5×FAD mouse Alzheimer's disease model system using 15 heterozygous animals tested from the age of 4 to 6 months. The same animals were tested monthly for spontaneous alternation in the Y-Maze test. When they reached the age of 6 months, 50% of the animals were injected i.p. with vehicle or with GL-II-73 (10 mg/kg).
# Animals: For the experiments described above, young (n=11, age 2 months) and old male mice (N=23) were purchased from Charles River. Old mice were obtained at the age of 9-10 months and were kept in the animal facility until they reached the age of 22 months. Young mice (2 months old) were purchased when old mice had already reached the age of 22 months. All animals were single housed. Experiments were performed on mice aged 2 months (“young”) or 22 months (“old”) at the beginning of the experimental protocol. The second set of experiments with the Washout group included 8 young mice and 22 old mice. Old mice were split into 3 groups of 7-8 between “Old”, “Old-treated” and “Old-Washout”. […]
# as §1
structure (smiles),measurement,setting,value
"C#Cc1ccc2c(c1)C(c1ccccc1F)=N[C@H](C)c1c(C(=O)N(C)C)ncn1-2 (stereo in doubt) [GL-II-73, 8-ethynyl-6-(2-fluorophenyl)-N,N,4-trimethyl-4H-benzo[f]imidazo[1,5-a][1,4]diazepine-3-carboxamide]",alternation rate in the Y maze test,old mice,higher alternation rate than old mice receiving only vehicle
same,dendritic length,[1],longer dendrites
same,spine density (spines),[1],more spines
same,alternation performance in the Y-Maze test,heterozygous 5×FAD mice,"a reversal of this decrease in alternation performance in the GL-II-73 treated group, although also not reaching statistical significance"
